SMILES strings stand for the structures. The source made the active and inactive calls. The rule behind the calls is not given here.

Seven compounds from ChEMBL document CHEMBL1147800, “Osteoblast differentiation stimulating activity of biflavonoids from Cephalotaxus koreana” (2006) can be followed below.

Test [1] relates to Osteoblast. As to the kind of experiment: Effect on mineralization in mouse primary osteoblasts by measuring calcium deposition. It counts as functional, cell-based.
For test [2], the system named is Osteoblast. As to the kind of experiment: Increase in ALP activity in mouse primary osteoblasts at 1 uM relative to control. It counts as functional.
The test system of test [3] is Osteoblast. As to the kind of experiment: Increase in ALP activity in mouse primary osteoblasts at 10 uM relative to control. It counts as functional.
Test [4] relates to Osteoblast. As to the kind of experiment: Increase in ALP activity in mouse primary osteoblasts at 20 uM relative to control. Format: functional.
The test system of test [5] is Osteoblast. As to the kind of experiment: Increase in collagen synthesis in mouse primary osteoblasts. Format: functional, cell-based.
In test [6] the test system is Osteoblast. As to the kind of experiment: Cytotoxicity against mouse primary osteoblasts at 20 uM by MTT assay. Format: functional, cell-based. Background: Formazan colour is commonly taken as a measure of viable cells.
Test [7] relates to Osteoblast. As to the kind of experiment: Increase in collagen synthesis in mouse primary osteoblasts at 10 uM relative to control. It counts as functional.

As for `COc1ccc(-c2cc(=O)c3c(O)cc(OC)c(-c4cc(-c5cc(=O)c6c(O)cc(OC)cc6o5)ccc4OC)c3o2)cc1`, the outcome with Osteoblast [1] and with Osteoblast [5] was Active. For the same compound, the Activity in the test with Osteoblast [2] was 105.1%; in the test on Osteoblast [3], 147.3%; in the test with Osteoblast [4] it was 149.5%.

`O=c1c(-c2ccc(O)cc2)coc2cc(O)ccc12` [DAIDZEIN]: the Activity is reported as 107.8% in the test with Osteoblast [2], 132.8% in the test with Osteoblast [3] and 128.1% in the test on Osteoblast [4].

For `COc1ccc(-c2cc(=O)c3c(O)cc(O)cc3o2)cc1-c1c(O)cc(O)c2c(=O)cc(-c3ccc(O)cc3)oc12` [BILOBETIN], the outcome with Osteoblast [1] was Active. Besides, the Activity with Osteoblast [2] is on record as 100.9%; with Osteoblast [3], 131.9%; in the test on Osteoblast [4], 130.6%.

Turning to `COc1cc(O)c2c(=O)cc(-c3ccc(OC)c(-c4c(O)cc(O)c5c(=O)cc(-c6ccc(O)cc6)oc45)c3)oc2c1` [GINKGETIN], the outcome in the test on Osteoblast [6] was Active. In addition, the Activity was 116.8% in the test on Osteoblast [2], 69.3% with Osteoblast [3] and 39.9% in the test with Osteoblast [4].

Turning to `COc1ccc(-c2cc(=O)c3c(O)cc(O)c(-c4cc(-c5cc(=O)c6c(O)cc(OC)cc6o5)ccc4OC)c3o2)cc1` [SCIADOPITISIN], the Activity was found to be 180% in the test with Osteoblast [7], 121.1% in the test on Osteoblast [2], 149% in the test with Osteoblast [3] and 153% in the test with Osteoblast [4]. The result with Osteoblast [1] was Active.

For the compound `COc1cc(O)c2c(=O)cc(-c3ccc(OC)c(-c4c(OC)cc(O)c5c(=O)cc(-c6ccc(O)cc6)oc45)c3)oc2c1`, the Activity in the test on Osteoblast [2] amounted to 108.4%; in the test with Osteoblast [3] it was 129.7%; in the test with Osteoblast [4] it was 122%.

As for `COc1ccc(-c2cc(=O)c3c(O)cc(O)cc3o2)cc1-c1c(OC)cc(O)c2c(=O)cc(-c3ccc(O)cc3)oc12`, the result with Osteoblast [6] was Active. The Activity in the test on Osteoblast [2] turned out to be 101.1%; in the test with Osteoblast [3] it was 113%; in the test with Osteoblast [4], 73.5%.
